Source: patent US7405235B2, “Transcription factor modulating compounds and methods of use thereof” (Paratek Pharmaceuticals, Inc., priority 2001, dated 2008)

These compounds were tested against MarA (Escherichia coli, UniProt P0ACH5) (assay: MarA-activated selective marker (ccdB) cell survival assay, Example 2). Conditions: inhibition of MarA: cell survival under conditions of MarA expression (ccdB under MarA-activated promoter).
Format: cell-based
Set-up: key: * indicates good inhibition of MarA; ** indicates very good inhibition of MarA
Source text: In the absence of Mar A, the expression of the selective marker would be silent. For example, in the case of regulation of the cytotoxic gene ccdB, the gene would be silent and the cells would survive. Synthesis of MarA from an inducible plasmid in a suitable host would result in the activation of the MarA responsive activatable promoter and expression of the selective marker. In the case of ccdB, the gene would be expressed and result in cell death. Compounds that inhibit MarA would be identified as those that permit cell survival under conditions of MarA expression.
In the absence of MarA, the expression of the selective marker is silent and cells survive. Synthesis of MarA from an inducible plasmid in a bacterial or yeast cell leads to the activation of the inaA promoter, expression of ccdB, and subsequently results in cell death. Compounds that inhibit MarA are those that permit cell survival under conditions of MarA expression. In Table 4, * indicates good inhibition of MarA and ** indicates very good inhibition of MarA.

Sequence of MarA (P0ACH5 whole entry, looked up): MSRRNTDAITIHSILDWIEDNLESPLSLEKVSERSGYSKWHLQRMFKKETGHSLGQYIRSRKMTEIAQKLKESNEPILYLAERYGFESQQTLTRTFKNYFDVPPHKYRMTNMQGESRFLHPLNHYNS

Q: CSc1nnc2c(n1)OC(c1ccc(I)o1)Nc1ccccc1-2 (centres unmarked) [A, 6-(5-Iodo-furan-2-yl)-3-methylsulfanyl-6,7-dihydro-5-oxa-1,2,4,7-tetraaza-dibenzo[a,c]cycloheptene] was tested. Which MarA inhibition class did it give?
A: Its MarA inhibition class is “**”.

Q: How did the MarA inhibition class turn out when N#Cc1c(-c2ccc3c(c2)OCO3)c(C#N)c2nc3ccccc3n2c1N [AB, 1-Amino-3-benzo[1,3]dioxol-5-yl-benzo[4,5]imidazo[1,2-a]pyridine-2,4-dicarbonitrile] was run?
A: The MarA inhibition class was “**”.

Q: With COC(=O)c1ccccc1NC(=O)CSc1nnc(-c2ccco2)n1-c1ccccc1 [AC, 2-[2-(5-Furan-2-yl-4-phenyl-4H-[1,2,4]triazol-3-ylsulfanyl)-acetylamino]-benzoic acid methyl ester] as the compound, how does the MarA inhibition class read?
A: Its MarA inhibition class is “*”.

Q: Cc1cc2nc3s/c(=C/c4c[nH]nc4-c4ccccc4)c(=O)n3c2cc1C [AD, 6,7-Dimethyl-2-(3-phenyl-1H-pyrazol-4-ylmethylene)-benzo[4,5]imidazo[2,1-b]thiazol-3-one] was tested. Which MarA inhibition class did it give?
A: The MarA inhibition class was “*”.

Q: For CSc1cccc(NC(=O)CSc2nnc(-c3ccc4nonc4c3)n2C)c1 [AE, 2-(5-Benzo[1,2,5]oxadiazol-5-yl-4-methyl-4H-[1,2,4]triazol-3-ylsulfanyl)-N-(3-methylsulfanyl-phenyl)-acetamide], which MarA inhibition class is on record?
A: Its MarA inhibition class is “*”.

Q: How did the MarA inhibition class turn out when O=C1C(=C2NC(c3ccccn3)C3C(=O)N(c4ccccc4)C(=O)C23)C(=O)c2ccccc21 (centres unmarked) [AF, 4-(1,3-Dioxo-indan-2-ylidene)-2-phenyl-6-pyridin-2-yl-tetrahydro-pyrrolo[3,4-c]pyrrole-1,3-dione] was run?
A: Its MarA inhibition class is “**”.

Q: O=[N+]([O-])c1ccc2nc(-c3ccccc3)n(OCc3cccc(C(F)(F)F)c3)c2c1 [AG, 6-Nitro-2-phenyl-1-(3-trifluoromethyl-benzyloxy)-1H-benzoimidazole] was tested. Which MarA inhibition class did it give?
A: Its MarA inhibition class is “**”.

Q: O=C(O)COn1c(-c2ccccc2)nc2ccc([N+](=O)[O-])cc21 [AH, (6-Nitro-2-phenyl-benzoimidazol-1-yloxy)-acetic acid] was tested. Which MarA inhibition class did it give?
A: The MarA inhibition class was “**”.

Q: O=[N+]([O-])c1ccc2nc(-c3ccccc3)n(OCc3ccccc3)c2c1 [AI, 1-Benzyloxy-6-nitro-2-phenyl-1H-benzoimidazole] was tested. Which MarA inhibition class did it give?
A: The MarA inhibition class was “**”.

Q: How did the MarA inhibition class turn out when Cc1ccc(COn2c(-c3ccccc3)nc3ccc([N+](=O)[O-])cc32)cc1 [AJ, 1-(4-Methyl-benzyloxy)-6-nitro-2-phenyl-1H-benzoimidazole] was run?
A: The MarA inhibition class was “*”.

Q: For Cn1c(=O)c2c3oc(-c4ccc([N+](=O)[O-])cc4)nc3c(=O)n(-c3ccccc3)c2n(C)c1=O [AK, 6,8-Dimethyl-2-(4-nitro-phenyl)-5-phenyl-5H,6H-1-oxa-3,5,6,8-tetraaza-cyclopenta[a]naphthalene-4,7,9-trione], which MarA inhibition class is on record?
A: The MarA inhibition class was “**”.

Q: With Cc1ccc(-c2nc3c(=O)n(-c4ccccc4)c4c(c(=O)n(C)c(=O)n4C)c3o2)cc1 [AL, 6,8-Dimethyl-5-phenyl-2-p-tolyl-5H,6H-1-oxa-3,5,6,8-tetraaza-cyclopenta[a]naphthalene-4,7,9-trione] as the compound, how does the MarA inhibition class read?
A: The MarA inhibition class was “*”.

Q: How did the MarA inhibition class turn out when CN(C)c1ccc(-c2cc(=O)c3ccccc3o2)cc1 [AW, 2-[4-(dimethylamino)phenyl]-4H-chromen-4-one] was run?
A: Its MarA inhibition class is “**”.

Q: How did the MarA inhibition class turn out when c1ccc(COn2c(-c3ccccc3)nc3ncccc32)cc1 [AX, 1-(benzyloxy)-2-phenyl-1H-imidazo[4,5-b]pyridine] was run?
A: The MarA inhibition class was “**”.

Q: With c1ccc(CSc2ncc(-c3nnnn3-c3ccccc3)c(-c3ccccc3)n2)cc1 [AY, 2-(benzylthio)-4-phenyl-5-(1-phenyl-1H-1,2,3,4-tetrazol-5-yl)pyrimidine] as the compound, how does the MarA inhibition class read?
A: Its MarA inhibition class is “**”.

Q: For O=c1cc(-c2ccccc2)oc2ccc(F)cc12 [AZ, 6-fluoro-2-phenyl-4H-chromen-4-one], which MarA inhibition class is on record?
A: Its MarA inhibition class is “**”.

Q: For CCOc1ccc(C2Nc3ccccc3-c3nnc(SC)nc3O2)cc1 (centres unmarked) [B, 6-(4-Ethoxy-phenyl)-3-methylsulfanyl-6,7-dihydro-5-oxa-1,2,4,7-tetraaza-dibenzo[a,c]cycloheptene], which MarA inhibition class is on record?
A: Its MarA inhibition class is “*”.

Q: How did the MarA inhibition class turn out when COc1ccc2c(=O)cc(-c3ccccc3)oc2c1 [BA, 7-methoxy-2-phenyl-4H-chromen-4-one] was run?
A: The MarA inhibition class was “*”.

Q: For O=C1C(=C2NC(c3ccccn3)C3C(=O)N(c4ccccc4)C(=O)C23)C(=O)c2ccccc21 (centres unmarked) [BB, 4-(1,3-dioxo-1,3-dihydro-2H-inden-2-yliden)-2-phenyl-6-(2-pyridinyl)tetrahydro pyrrolo[3,4-c]pyrrole-1,3(2H,3aH)-dione], which MarA inhibition class is on record?
A: The MarA inhibition class was “*”.

Q: With CCOC(=O)C(C(N)=O)C1(O)OC(c2ccc(C)cc2)=CC1=O (centres unmarked) [BC, 2-(2-Hydroxy-3-oxo-5-p-tolyl-2,3-dihydro-furan-2-yl)-malonamic acid ethylester] as the compound, how does the MarA inhibition class read?
A: Its MarA inhibition class is “*”.

Q: O=C(O)COn1c(-c2ccccc2)nc2ccc([N+](=O)[O-])cc21 [BD, 2-[(6-nitro-2-phenyl-1H-1,3-benzimidazol-1-yl)oxy]acetic acid] was tested. Which MarA inhibition class did it give?
A: Its MarA inhibition class is “*”.

Q: Which MarA inhibition class does the source give for O=c1cc(-c2ccc(F)cc2)oc2ccccc12 [BE, 2-(4-fluorophenyl)-4H-chromen-4-one] here?
A: The MarA inhibition class was “*”.

Q: With COn1c(-c2ccc(C)cc2)nc2ncccc21 [BF, 1-methoxy-2-(4-methylphenyl)-1H-imidazo[4,5-b]pyridine] as the compound, how does the MarA inhibition class read?
A: Its MarA inhibition class is “*”.

Q: Which MarA inhibition class does the source give for O=c1cc(-c2ccc(O)cc2)oc2ccccc12 [BG, 2-(4-hydroxyphenyl)-4H-chromen-4-one] here?
A: The MarA inhibition class was “*”.

Q: CSc1nnc2c(n1)OC(c1ccc([N+](=O)[O-])o1)Nc1ccccc1-2 (centres unmarked) [C, 3-Methylsulfanyl-6-(5-nitro-furan-2-yl)-6,7-dihydro-5-oxa-1,2,4,7-tetraaza-dibenzo[a,c]cycloheptene] was tested. Which MarA inhibition class did it give?
A: Its MarA inhibition class is “*”.

Q: For CSc1nnc2c(n1)OC(c1ccc(-c3ccc([N+](=O)[O-])cc3)o1)Nc1ccccc1-2 (centres unmarked) [D, 3-Methylsulfanyl-6-[5-(4-nitro-phenyl)-furan-2-yl]-6,7-dihydro-5-oxa-1,2,4,7-tetraaza-dibenzo[a,c]cycloheptene], which MarA inhibition class is on record?
A: Its MarA inhibition class is “*”.

Q: With CCSc1nnc2c(n1)OC(c1ccc(O)c(O)c1)Nc1ccccc1-2 (centres unmarked) [E, 4-(3-Ethylsulfanyl-6,7-dihydro-5-oxa-1,2,4,7-tetraza-dibenzo[a,c]cyclohepten-6-yl)-benzene-1,2-diol] as the compound, how does the MarA inhibition class read?
A: The MarA inhibition class was “*”.

Q: CCCSc1nnc2c(n1)OC(c1ccc(OCc3ccccc3)cc1)Nc1ccccc1-2 (centres unmarked) [F, 6-(4-Benzyloxy-phenyl)-3-propylsulfanyl-6,7-dihydro-5-oxa-1,2,4,7-tetraaza-dibenzo[a,c]cycloheptene] was tested. Which MarA inhibition class did it give?
A: Its MarA inhibition class is “**”.

Q: Which MarA inhibition class does the source give for CCCCSc1nnc2c(n1)OC(c1ccc(OC)cc1OC)Nc1ccccc1-2 (centres unmarked) [H, 3-Butylsulfanyl-6-(2,4-dimeethoxy-phenyl)-6,7-dihydro-5-oxa-1,2,4,7-tetraaza-dibenzo[a,c]cycloheptene] here?
A: Its MarA inhibition class is “*”.

Q: For C=CCOc1ccc(C2Nc3ccccc3-c3nnc(SCCCC)nc3O2)cc1 (centres unmarked) [I, 6-(4-Allyloxy-phenyl)-3-butylsulfanyl-6,7-dihydro-5-oxa-1,2,4,7-tetraaza-dibenzo[a,c]cycloheptene], which MarA inhibition class is on record?
A: Its MarA inhibition class is “**”.

Q: CCCCSc1nnc2c(n1)OC(c1ccc(OCC)cc1)Nc1ccccc1-2 (centres unmarked) [J, 3-Butylsulfanyl-6-(4-ethoxy-phenyl)-6,7-dihydro-5-oxa-1,2,4,7-tetraaza-dibenzo[a,c]cycloheptene] was tested. Which MarA inhibition class did it give?
A: The MarA inhibition class was “*”.

Q: CCCSc1nnc2c(n1)OC(c1ccc(OC)cc1)Nc1ccccc1-2 (centres unmarked) [K, 6-(4-Methoxy-phenyl)-3-propylsulfanyl-6,7-dihydro-5-oxa-1,2,4,7-tetraaza-dibenzo[a,c]cycloheptene] was tested. Which MarA inhibition class did it give?
A: Its MarA inhibition class is “*”.

Q: With CCCSc1nnc2c(n1)OC(c1ccc(-c3cccc([N+](=O)[O-])c3)o1)Nc1ccccc1-2 (centres unmarked) [L, 6-[5-(3-Nitro-phenyl)-furan-2-yl]-3-propylsulfanyl-6,7-dihydro-5-oxa-1,2,4,7-tetraaza-dibenzo[a,c]cycloheptane] as the compound, how does the MarA inhibition class read?
A: The MarA inhibition class was “**”.

Q: With O=c1/c(=C\c2c[nH]nc2-c2ccccc2)sc2nc3ccccc3n12 [M, 2-(3-Phenyl-1H-pyrazol-4-ylmethylene)-benzo[4,5]imidazo[2,1-b]thiazol-3-one] as the compound, how does the MarA inhibition class read?
A: Its MarA inhibition class is “**”.

Q: How did the MarA inhibition class turn out when CCOC(=O)C1=C(C)N=c2sc(=Cc3ccc(-c4cccc(C(=O)O)c4)o3)c(=O)n2C1c1c(OC)ccc2ccccc12 (centres unmarked) [N, 2-[5-(3-Carboxy-phenyl)-furan-2-ylmethylene]-5-(2-methoxy-naphthalen-1-yl)-7-methyl-3-oxo-2,3-dihydro-5H-thiazolo[3,2-a]pyrimidine-6-carboxylicacid ethyl ester] was run?
A: Its MarA inhibition class is “**”.

Q: CCOC(=O)C1=C(C)N=c2sc(=Cc3ccc(-c4ccc([N+](=O)[O-])cc4C)o3)c(=O)n2C1c1ccc2c(c1)OCO2 (centres unmarked) [P, 5-Benzo[1,3]dioxol-5-yl-7-methyl-2-[5-(2-methyl-4-nitro-phenyl)-furan-2-ylmethylene]-3-oxo-2,3-dihydro-5H-thiazolo[3,2-a]pyrimidine-6-carboxylicacid ethyl ester] was tested. Which MarA inhibition class did it give?
A: The MarA inhibition class was “*”.

Q: CCOC(=O)C1=C(C)N=c2s/c(=C/c3ccc(-c4cccc(C(F)(F)F)c4)o3)c(=O)n2C1c1ccccc1 (centres unmarked) [U, 7-Methyl-3-oxo-5-phenyl-2-[5-(3-trifluoromethyl-phenyl)-furan-2-ylmethylene]-2,3-dihydro-5H-thiazolo[3,2-a]pyrimidine-6-carboxylicacid ethyl ester] was tested. Which MarA inhibition class did it give?
A: Its MarA inhibition class is “**”.

Q: How did the MarA inhibition class turn out when CCOC(=O)C1=C(C)N=c2sc(=Cc3ccc(-c4cccc(C(=O)O)c4)o3)c(=O)n2C1c1ccc(N(C)C)cc1 (centres unmarked) [W, 2-[5-(3-Carboxy-phenyl)-furan-2-ylmethylene]-5-(4-dimethylamino-phenyl)-7-methyl-3-oxo-2,3-dihydro-5H-thiazolo[3,2-a]pyrimidine-6-carboxylicacid ethyl ester] was run?
A: The MarA inhibition class was “**”.
